Patent US20240174723A1, “STAPLED ANTIMICROBIAL PEPTIDES (STAMPS) AND USES THEREOF” (Lytica Therapeutics, Inc., priority 2021, published 2024)
Converted amounts (≈) assume the structure as drawn. Positions of bridges follow the written chain, without caps; N, C: chain ends. Non-standard residues stand in square brackets, D forms with d. Residues, ends and D or L forms follow the SMILES beside them. S5 = C=CCCC[C@](C)(N)C(=O)O

Tests used:
[1] = test system: E. coli; format: cell-based, Escherichia coli
How it was run: (§1)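 Read-out is visible growth: the MIC is the minimum peptide concentration showing none after 20-24 h at 37 °C. Peptides were serially diluted from water stocks and mixed with log-phase bacteria (final 5×10^5 CFU/ml) in Mueller-Hinton or cation-adjusted Mueller-Hinton broth.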

[2] = test system: A. baumannii; format: cell-based, Acinetobacter baumannii
How it was run: as §1

[3] = test system: P. aeruginosa; format: cell-based, Pseudomonas aeruginosa
How it was run: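 Broth microdilution adapted from CLSI in MHB or cation-adjusted MHB; log-phase P. aeruginosa at 5×10^5 CFU/ml final with serially diluted stapled peptides. Incubated 20-24 h at 37 °C; MIC is the lowest concentration without visible growth.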

[4] = test system: K. pneumoniae; format: cell-based, Klebsiella pneumoniae
How it was run: as §1

[5] = test system: S. aureus; format: cell-based, Staphylococcus aureus
How it was run: as §1

[6] = in vitro; format: cell-based; conditions: human
Method: Cell culture: RPTEC were maintained in MEM media supplemented with growth factors. HEPG2 cell line was maintained in Eagle's Minimum Essential Medium (EMEM) supplemented with fetal bovine serum to a final concentration of 10%.
90 minute cytotoxicity assay: Cells were plated in a 96-well format, and after overnight incubation, media was replaced with fresh media. Serial dilutions of StAMPs from a 5 mg/mL water stock, or vehicle, were added to the cells in a final volume of 100 μl. After incubating at 37° C. for 90 min, 50 μl of cell culture media was transferred to a clear 96-well plate, incubated with 50 μl of lactate dehydrogenase (LDH) assay reagent for 10 min, and absorbance measured at 490 nm on a microplate reader.
Renal toxicity was measured after 90 minutes of incubation, while liver toxicity was measured after 48 hours of incubation with StAMPs. N/A=not tested. The following apply to all peptides (i.e., StAMPs) listed in Tables A-C: Crosslinks (X^1—X^2 and X^3—X^4): (alk); N-terminus: —NH2; C-terminus: amidated with —NH2; counterion: Cl^−. The following apply to all peptides (i.e., StAMPs) listed in Table D: Crosslinks (X^1—X^2 and X^3—X^4): (alk); N-terminus: —NH2; C-terminus: as shown in table; counterion: Cl^−.
StAMP Micelle Formulation: DSPE-MPEG(2000) was suspended in buffered saline at 50-100 mg/mL overnight. StAMP stock solutions at 5-20 mg/mL in buffered saline were prepared and equal volumes of micelle and StAMP stock solution were mixed at the desired StAMP:Lipid ratio. Suspensions were allowed to sit for 5-10 minutes at room temperature before being used in in vitro and in vivo assays.
In Table E, the StAMP is StAMP 4 (Table A) and “Lipid”=DSPE-MPEG(2000).

[7] = in vitro; format: cell-based; conditions: human, Inhibitory Concentration at 50% Cytotoxicity (IC50) Human Liver Cells (HepG2)
How it was run: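 HepG2 cells in EMEM with 10% FBS, allowed 4 h to attach, then exposed to serial dilutions of StAMPs (from a 5 mg/mL water stock) or vehicle. After 48 h at 37 °C, viability read by CellTiter-Glo luminescence.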

Row | Structure (SMILES) | Minimum Inhibitory Concentration (MIC) E. coli [1] [µg/mL] | Minimum Inhibitory Concentration (MIC) A. baumannii [2] [µg/mL] | Minimum Inhibitory Concentration (MIC) P. aeruginosa [3] [µg/mL] | Minimum Inhibitory Concentration (MIC) K. pneumoniae [4] [µg/mL] | Minimum Inhibitory Concentration (MIC) S. aureus [5] [µg/mL] | IC50 at 90 min [6] [µg/mL] | IC50 at 48 hours [7] [µg/mL]
1 | CC(C)[C@@H]1NC(=O)[C@@](C)(NC(=O)[C@H](C)NC(=O)[C@H](CCCCN)NC(=O)CNC(=O)[C@H](Cc2ccccc2)NC(=O)[C@H](CCCCN)NC(=O)[C@H](CCCCN)NC(=O)[C@H](CCCCN)NC(=O)[C@H](CO)NC(=O)[C@H](Cc2c[nH]cn2)NC(=O)[C@]2(C)CCCC=CCCC[C@](C)(NC(=O)CN)C(=O)NCC(=O)N[C@@H](CCCCN)C(=O)N[C@@H](Cc3ccccc3)C(=O)N2)CCCC=CCCC[C@@](C)(C(=O)N[C@@H](C)C(=O)N[C@@H](CCCCN)C(=O)N[C@@H](CCCCN)C(N)=O)NC(=O)[C@H](CCC(=O)O)NC(=O)[C@H](Cc2c[nH]c3ccccc23)NC1=O (single isomer, unassigned) [compound 10] | 4 | 2 | 4 | 4 | 32 | 110 (≈ 41.3 µM) | 150 (≈ 56.4 µM)
2 | CC(C)[C@@H]1NC(=O)[C@@](C)(NC(=O)[C@H](C)NC(=O)[C@H](CCCCN)NC(=O)CNC(=O)[C@H](Cc2ccccc2)NC(=O)[C@H](CCCCN)NC(=O)[C@H](CCCCN)NC(=O)[C@H](CCCCN)NC(=O)[C@H](CO)NC(=O)[C@H](Cc2c[nH]cn2)NC(=O)[C@]2(C)CCCC=CCCC[C@](C)(NC(=O)CN)C(=O)NCC(=O)N[C@@H](CCCCN)C(=O)N[C@@H](Cc3ccccc3)C(=O)N2)CCCC=CCCC[C@@](C)(C(=O)N[C@@H](C)C(=O)N[C@@H](CCCCN)C(=O)N[C@@H](CCCCN)C(N)=O)NC(=O)[C@H](CCC(=O)O)NC(=O)CNC1=O [compound 1] (H-G[S5]GKF[S5]HSKKKFGKA[S5]VGE[S5]AKK-NH2; staple 2-6, 16-20) | 2 | 2 | 8 | 32 | >64 | 294 (≈ 116 µM) | 391 (≈ 154 µM)
3 | CC(C)[C@@H]1NC(=O)[C@@](C)(NC(=O)[C@H](C)NC(=O)[C@H](CCCCN)NC(=O)CNC(=O)[C@H](Cc2ccccc2)NC(=O)[C@H](CCCCN)NC(=O)[C@H](CCCCN)NC(=O)[C@H](CCCCN)NC(=O)[C@H](CO)NC(=O)[C@H](CCCCN)NC(=O)[C@]2(C)CCCC=CCCC[C@](C)(NC(=O)CN)C(=O)NCC(=O)N[C@@H](CCCCN)C(=O)N[C@@H](Cc3ccccc3)C(=O)N2)CCCC=CCCC[C@@](C)(C(=O)N[C@@H](C)C(=O)N[C@@H](CCCCN)C(=O)N[C@@H](CCCCN)C(N)=O)NC(=O)[C@H](CCC(=O)O)NC(=O)CNC1=O [compound 2] (H-G[S5]GKF[S5]KSKKKFGKA[S5]VGE[S5]AKK-NH2; staple 2-6, 16-20) | 2 | 2 | 4 | 4 | 64 | 116 (≈ 46 µM) | 143 (≈ 56.7 µM)
4 | CC(C)[C@@H]1NC(=O)[C@@](C)(NC(=O)[C@H](C)NC(=O)[C@H](CCCCN)NC(=O)CNC(=O)[C@H](Cc2ccccc2)NC(=O)[C@H](CCCCN)NC(=O)[C@H](CCCCN)NC(=O)[C@H](CCCCN)NC(=O)[C@H](CCCCN)NC(=O)[C@H](Cc2c[nH]cn2)NC(=O)[C@]2(C)CCCC=CCCC[C@](C)(NC(=O)CN)C(=O)NCC(=O)N[C@@H](CCCCN)C(=O)N[C@@H](Cc3ccccc3)C(=O)N2)CCCC=CCCC[C@@](C)(C(=O)N[C@@H](C)C(=O)N[C@@H](CCCCN)C(=O)N[C@@H](CCCCN)C(N)=O)NC(=O)[C@H](CCC(=O)O)NC(=O)CNC1=O [compound 3] (H-G[S5]GKF[S5]HKKKKFGKA[S5]VGE[S5]AKK-NH2; staple 2-6, 16-20) | 4 | 4 | 4 | 16 | >64 | > 200 | > 200
